Data reported in patent publication US20070173463A1, “Method and composition for treating otitis media” (priority 2006, published 2007).

Key:
[1] = prophylactic drops; cited from earlier work
[2] = topical use in the ear; cited from earlier work
ear = conditions: guinea pigs; cited from earlier work
[3] = tested on: inner ear hearing function; assay: Application to the round window membrane with monitoring of compound action potential (CAP); format: in vivo, guinea pigs; conditions: 0.05 to 1.0% applied directly to the round window membrane, more than 50 animals
Source text: The inventor conducted animal studies involving application of alpha agonists, including phenylphrine (and other similar agents) directly in the middle ear space of guinea pigs. In these studies, phenylephrine at a concentration of 0.05 to 1.0% was applied directly to the round window membrane of the animal. […] The monitoring of CAP was not specifically reported in published reports, but rather was monitored on a routine basis as a part of the experimental setup. […] See also Isaacson G et al., Oxymetazoline solutions inhibit middle ear pathogens and are not ototoxic.

[4] = topical; cited from earlier work

Molecule: O=C(O)c1cn(C2CC2)c2cc(N3CCNCC3)c(F)cc2c1=O [ciprofloxacin]
- prevention of post-operative ear drainage after tube insertion [1]: effective at preventing post-operative ear drainage after tube insertion

Molecule: CC1COc2c(N3CCN(C)CC3)c(F)cc3c(=O)c(C(=O)O)cn1c23 (stereo not drawn) [ofloxacin]
- toxicity for the inner ear (ototoxicity) [2]: demonstrated lack of toxicity for the inner ear

Molecule: Cc1cc(C(C)(C)C)c(O)c(C)c1CC1=NCCN1 [oxymetazoline]
- toxicity to the ear (ear): non-toxic to the ear

Molecule: CNC[C@H](O)c1cccc(O)c1 [phenylephrine]
- compound action potential (CAP), a measure of inner ear hearing function [3]: not found to be adversely affected

Molecule: NC[C@H]1O[C@H](O[C@H]2[C@H](O)[C@@H](O[C@H]3O[C@H](CO)[C@@H](O)[C@H](N)[C@H]3O)[C@H](N)C[C@@H]2N)[C@H](N)C[C@@H]1O [tobramycin]
- toxicity for the inner ear (ototoxicity) [2]: scattered reports of ototoxicity
- effectiveness in treating middle ear infections [4]: effective in treating middle ear infections topically

Molecule: Gentamycin
- toxicity for the inner ear (ototoxicity) [2]: scattered reports of ototoxicity
- effectiveness in treating middle ear infections [4]: effective in treating middle ear infections topically

Molecule: neomycin
- effectiveness in treating middle ear infections [4]: effective in treating middle ear infections topically
